In the supplement of paper PMC10883282:
± gives the standard deviation of the averaged measurements.

Test system: RD-ES
Assay: relative viability vs DMSO control (72 h) (fraction); higher = more viable cells
How it was run: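 Sarcoma cell lines in 384-well plates, seeded to reach 80–90% confluence, were given compound after 24 h and kept 72 h at 37 °C, 5% CO2, with 0.1% DMSO vehicle and a 5 µM positive control. Relative viability came from ATPLite as percent growth, averaged over up to triplicate wells. On the rescaled values, 1 equals full and 0 equals none.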

CO[C@H]1C[C@@H]2CC[C@@H](C)[C@@](O)(O2)C(=O)C(=O)N2CCCC[C@H]2C(=O)O[C@H]([C@H](C)C[C@@H]2CC[C@@H](OP(C)(C)=O)[C@H](OC)C2)CC(=O)[C@H](C)/C=C(\C)[C@@H](O)[C@@H](OC)C(=O)[C@H](C)C[C@H](C)/C=C/C=C/C=C/1C [Ridaforolimus]
relative viability (0.00017 µM): 0.988 ± 0.013
relative viability (0.00051 µM): 0.978 ± 0.019
relative viability (0.00152 µM): 0.893 ± 0.039
relative viability (0.00457 µM): 0.804 ± 0.0091
relative viability (0.01372 µM): 0.754 ± 0.019
relative viability (0.04115 µM): 0.71 ± 0.011
relative viability (0.1235 µM): 0.6822 ± 0.0053
relative viability (0.3704 µM): 0.674 ± 0.0087
relative viability (1.111 µM): 0.693 ± 0.025
relative viability (3.333 µM): 0.66 ± 0.026
relative viability (10 µM): 0.627 ± 0.021

CCc1cc2c(cc1N1CCC(N3CCOCC3)CC1)C(C)(C)c1[nH]c3cc(C#N)ccc3c1C2=O [Alectinib]
relative viability (0.00017 µM): 0.9941 ± 0.0039
relative viability (0.00051 µM): 0.997 ± 0.011
relative viability (0.00152 µM): 0.993 ± 0.016
relative viability (0.00457 µM): 0.997 ± 0.025
relative viability (0.01372 µM): 0.988 ± 0.026
relative viability (0.04115 µM): 1 ± 0.029
relative viability (0.1235 µM): 1.03 ± 0.039
relative viability (0.3704 µM): 0.988 ± 0.036
relative viability (1.111 µM): 1.04 ± 0.029
relative viability (3.333 µM): 1.04 ± 0.014
relative viability (10 µM): 1.03 ± 0.034

COCc1c(-c2cc3cc(C)cc(OC)c3s2)c2c(N)ncnn2c1CN1CCNC(=O)C1 [Rogaratinib]
relative viability (0.00017 µM): 1.04 ± 0.027
relative viability (0.00051 µM): 0.997 ± 0.028
relative viability (0.00152 µM): 1.03 ± 0.012
relative viability (0.00457 µM): 1.02 ± 0.032
relative viability (0.01372 µM): 1.03 ± 0.013
relative viability (0.04115 µM): 1 ± 0.036
relative viability (0.1235 µM): 0.971 ± 0.043
relative viability (0.3704 µM): 0.958 ± 0.013
relative viability (1.111 µM): 0.91 ± 0.029
relative viability (3.333 µM): 0.774 ± 0.014
relative viability (10 µM): 0.455 ± 0.0058

C[C@@H]1CCN(C(=O)CC#N)C[C@@H]1N(C)c1ncnc2[nH]ccc12 [Tofacitinib]
relative viability (0.00017 µM): 0.942 ± 0.038
relative viability (0.00051 µM): 0.962 ± 0.035
relative viability (0.00152 µM): 0.952 ± 0.053
relative viability (0.00457 µM): 0.966 ± 0.045
relative viability (0.01372 µM): 0.961 ± 0.024
relative viability (0.04115 µM): 0.962 ± 0.06
relative viability (0.1235 µM): 0.949 ± 0.047
relative viability (0.3704 µM): 0.965 ± 0.034
relative viability (1.111 µM): 0.955 ± 0.045
relative viability (3.333 µM): 0.988 ± 0.051
relative viability (10 µM): 1.02 ± 0.044

O=C(Cc1ccc(-c2ccc(OCCN3CCOCC3)cc2)cn1)NCc1ccccc1 [KX2-391]
relative viability (0.00017 µM): 0.984 ± 0.025
relative viability (0.00051 µM): 1.002 ± 0.0063
relative viability (0.00152 µM): 1.01 ± 0.029
relative viability (0.00457 µM): 0.996 ± 0.017
relative viability (0.01372 µM): 0.973 ± 0.022
relative viability (0.04115 µM): 0.674 ± 0.021
relative viability (0.1235 µM): 0.0817 ± 0.0038
relative viability (0.3704 µM): 0.0547 ± 0.0048
relative viability (1.111 µM): 0.0489 ± 0.0023
relative viability (3.333 µM): 0.0417 ± 0.0023
relative viability (10 µM): 0.0395 ± 0.0014

C[C@@H](c1ccc2nccn2c1)n1nnc2ncc(-c3cnn(C)c3)nc21 [Volitinib]
relative viability (0.00017 µM): 0.975 ± 0.017
relative viability (0.00051 µM): 1.01 ± 0.019
relative viability (0.00152 µM): 0.98 ± 0.043
relative viability (0.00457 µM): 0.998 ± 0.022
relative viability (0.01372 µM): 1 ± 0.018
relative viability (0.04115 µM): 1 ± 0.013
relative viability (0.1235 µM): 1.02 ± 0.017
relative viability (0.3704 µM): 1.03 ± 0.025
relative viability (1.111 µM): 0.989 ± 0.062
relative viability (3.333 µM): 0.995 ± 0.064
relative viability (10 µM): 0.972 ± 0.081

C[C@]1(O)C[C@@H](c2nc(-c3ccc4ccc(-c5ccccc5)nc4c3)c3c(N)nccn32)C1 [Linsitinib]
relative viability (0.00017 µM): 0.986 ± 0.02
relative viability (0.00051 µM): 0.992 ± 0.034
relative viability (0.00152 µM): 0.982 ± 0.017
relative viability (0.00457 µM): 0.967 ± 0.015
relative viability (0.01372 µM): 0.928 ± 0.014
relative viability (0.04115 µM): 0.8432 ± 0.005
relative viability (0.1235 µM): 0.661 ± 0.017
relative viability (0.3704 µM): 0.451 ± 0.028
relative viability (1.111 µM): 0.382 ± 0.016
relative viability (3.333 µM): 0.354 ± 0.018
relative viability (10 µM): 0.309 ± 0.0052

COc1cc2c(Oc3ccc4[nH]c(C)cc4c3F)ncnc2cc1OCCCN1CCCC1 [Cediranib]
relative viability (0.00017 µM): 0.96 ± 0.026
relative viability (0.00051 µM): 0.985 ± 0.038
relative viability (0.00152 µM): 0.95 ± 0.023
relative viability (0.00457 µM): 0.958 ± 0.018
relative viability (0.01372 µM): 0.992 ± 0.023
relative viability (0.04115 µM): 0.961 ± 0.017
relative viability (0.1235 µM): 0.962 ± 0.01
relative viability (0.3704 µM): 0.9773 ± 0.0095
relative viability (1.111 µM): 0.887 ± 0.013
relative viability (3.333 µM): 0.971 ± 0.025
relative viability (10 µM): 0.943 ± 0.022

CC(C)(C)c1cc(NC(=O)Nc2ccc(-c3cn4c(n3)sc3cc(OCCN5CCOCC5)ccc34)cc2)no1 [Quizartinib]
relative viability (0.00017 µM): 0.968 ± 0.018
relative viability (0.00051 µM): 0.983 ± 0.028
relative viability (0.00152 µM): 0.993 ± 0.018
relative viability (0.00457 µM): 0.9932 ± 0.0065
relative viability (0.01372 µM): 0.993 ± 0.011
relative viability (0.04115 µM): 0.995 ± 0.005
relative viability (0.1235 µM): 0.986 ± 0.02
relative viability (0.3704 µM): 1 ± 0.025
relative viability (1.111 µM): 0.991 ± 0.019
relative viability (3.333 µM): 0.951 ± 0.043
relative viability (10 µM): 0.869 ± 0.035

COc1cc2/c(=N/c3ccc(Br)cc3F)nc[nH]c2cc1OCC1CCN(C)CC1 [Vandetanib]
relative viability (0.00017 µM): 0.944 ± 0.034
relative viability (0.00051 µM): 0.949 ± 0.031
relative viability (0.00152 µM): 0.957 ± 0.01
relative viability (0.00457 µM): 0.939 ± 0.047
relative viability (0.01372 µM): 0.927 ± 0.025
relative viability (0.04115 µM): 0.94 ± 0.041
relative viability (0.1235 µM): 0.944 ± 0.053
relative viability (0.3704 µM): 0.922 ± 0.056
relative viability (1.111 µM): 0.804 ± 0.054
relative viability (3.333 µM): 0.648 ± 0.029
relative viability (10 µM): 0.0224 ± 0.01
